Laboratory results from patent publication US8778974B2, “Trisubstituted 1,2,4 triazoles” (Janssen Pharmaceutica NV, priority 2008, dated 2014).

Key:
[1] = biological target: T1, hα7-wt nAChR-expressing GH4Cl cells (Homo sapiens, UniProt P36544); experiment: Patch-clamp current recording (whole-cell), potentiation of choline 1 mM response, PAM type; type: cell-based; parameters: key to Pam type: Type 0 compounds minimally enhance the effect size of the current elicited by 1 mM choline.; Type 1 compounds enhance the effect size of the current elicited by 1 mM choline but minimally alter the kinetics of the receptor.; Type 2 compounds enhance the effect size of the current elicited by 1 mM choline while reducing the rate and/or the extent of desensitization.; Type 3 compounds enhance the effect size of the current elicited by 1 mM choline. When tested at higher concentrations up to 10 μM they completely inhibit desensitization, in particular a 1 mM choline application of 250 milliseconds.; Type 4 compounds allow for an initial desensitization of the receptor followed by a re-opening of the receptor during agonist application; details: for EC50: according to Ex. D.2, "<5" = no top plateau reached at maximal concentration, read-out: Potency (pEC50) (converted); for Pam type: patch-clamp current recording, 1 mM choline
T1 construct: expressed in transfected cells
Protocol: The compounds of the present invention are classified as type 1-4, based on qualitative kinetic properties, as determined by whole-cell voltage-clamp recordings. This classification is based on the effect of an α7 PAM compound, as described hereinbefore, on the signal elicited by an agonist application. In particular, said agonist is choline at a concentration of 1 mM. In a preferred experimental setting, said α7 PAM compound and choline are simultaneously applied to the cell, as described hereinafter. Desensitization is defined as the closure of the receptor upon activation during the application of the agonist in whole-cell voltage-clamp electrophysiology measurements seen as the reduction of the […] current after initial activation by the agonist.
The definition of the PAM types 1-4 is described hereinafter: • Type 0 compounds minimally enhance the effect size of the current elicited by 1 mM choline. • Type 1 compounds enhance the effect size of the current elicited by 1 mM choline but minimally alter the kinetics of the receptor. In particular, the rate and the extent of desensitization, elicited by the agonist, is not affected. The compound-modulated response to 1 mM choline, therefore, is a close to linear scaling of the 1 mM choline response in absence of the α7 PAM compound. • Type 2 compounds enhance the effect size of the current elicited by 1 mM choline while reducing the rate and/or the extent of desensitization. • Type 3 compounds enhance the effect size of the current elicited by 1 mM choline. […] At low-potency concentrations of the α7 PAM compound, the agonist-induced activation, which is followed by desensitization, can still be separated from the compound-induced re-opening as an initial inward current-maximum. At higher potency concentrations of the α7 PAM compound, the re-opening occurs faster than the closure due to desensitization so that the initial current-maximum disappears.
Patch-clamp Current Recording
Patch-clamp recording from mammalian cells has provided a powerful means of assessing the function of membrane-bound proteins thought to be subunits of ligand-gated ion channels. Activation of such proteins by endogenous or exogenous ligands cause opening of a pore associated with the receptor through which ions flow down their electrochemical gradient. In the case of the hα7-wt nAChR-expressing GH4Cl recombinant cell line the preferential permeability to calcium of this receptor means that calcium flows into the cell upon activation by ACh, choline and other nicotinic ligands giving rise to a calcium current. Since this receptor rapidly desensitizes in the presence of agonist it is important an application system is used which is capable of very rapid switching of solutions (<100 ms) to prevent partial or full desensitisation of receptor responses coincident with the time of agonist application. Consequently, a second convenient technique to assess the enhancement of nicotinic efficacy is patch-clamp recording from hα7-wt nAChR-expressing GH4Cl cells coupled with a rapid-application system.
• a) Assay buffers • The external recording solution consisted of 152 mM NaCl, 5 mM KCl, 1 mM MgCl2, 1 mM Calcium, 10 mM HEPES; pH 7.3. The internal recording solution consisted of 140 mM CsCl, 10 mM HEPES, 10 mM EGTA, 1 mM MgCl2, pH 7.3. • b) Patch-clamp recording was carried out using a Patch-clamp amplifier (Multiclamp 700A, Axon Instruments, Calif., USA). hα7-wt nAChR-expressing GH4Cl cells were patch-clamp in the whole cell configuration (Hamill et al, 1981) with a borosilicate glass electrode of 1.5-3 MΩ tip resistance when filled with the internal recording solution. Recordings were made on cells with membrane resistance >500 MΩ and more preferably 1GΩ and series resistance <15 MΩ with at least 60% series resistance compensation. […]

T1 sequence (P36544 23-502): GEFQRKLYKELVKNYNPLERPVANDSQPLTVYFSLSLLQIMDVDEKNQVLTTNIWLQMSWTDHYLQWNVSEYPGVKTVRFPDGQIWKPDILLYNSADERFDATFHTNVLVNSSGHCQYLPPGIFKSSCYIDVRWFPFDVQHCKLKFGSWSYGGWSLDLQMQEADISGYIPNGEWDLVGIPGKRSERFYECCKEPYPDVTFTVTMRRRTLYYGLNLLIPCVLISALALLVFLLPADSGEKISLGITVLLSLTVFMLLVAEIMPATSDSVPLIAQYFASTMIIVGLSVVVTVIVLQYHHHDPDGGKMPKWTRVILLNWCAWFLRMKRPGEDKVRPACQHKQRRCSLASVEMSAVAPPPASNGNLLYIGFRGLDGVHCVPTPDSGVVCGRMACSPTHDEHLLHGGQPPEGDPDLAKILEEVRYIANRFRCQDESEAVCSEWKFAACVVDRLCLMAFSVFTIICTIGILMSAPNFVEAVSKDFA

Row | Compound | melting point | EC50 [1] | Pam type [1]
1 | COc1ncccc1-n1nc(Nc2cccc(OC(F)(F)F)c2)nc1CCC(=O)N(C)C [E4, 1-(2-Methoxy-3-pyridinyl)-N,N-dimethyl-3-[[3-(trifluoromethoxy)phenyl]amino]-1H-1,2,4-triazole-5-propanamide] | 166.7 °C | 3800 nM | –
2 | CNc1ncccc1-n1nc(Nc2cccc(OC(F)(F)F)c2)nc1CCC(=O)N(C)C [E6, N,N-Dimethyl-1-[2-(methylamino)-3-pyridinyl]-3-[[3-(trifluoromethoxy)phenyl]amino]-1H-1,2,4-triazole-5-propanamide] | 212.8 °C | 851 nM | –
3 | Cc1cc(-n2nc(Nc3ccc(F)c(C(F)(F)F)c3)nc2CCCO)ccn1 [E7, 3-[[4-Fluoro-3-(trifluoromethyl)phenyl]amino]-1-(2-methyl-4-pyridinyl)-1H-1,2,4-triazole-5-propanol] | 197.6 °C | 1000 nM | 2
4 | Cc1cc(-n2nc(Nc3ccc(F)c(C(F)(F)F)c3)nc2CCCF)ccn1 [E8, 5-(3-Fluoropropyl)-N-[4-fluoro-3-(trifluoromethyl)phenyl]-1-(2-methyl-4-pyridinyl)-1H-1,2,4-triazol-3-amine] | 191.5 °C | 513 nM | 0
5 | Cc1cc(-n2nc(Nc3ccc(F)c(C(F)(F)F)c3)nc2CCCCl)ccn1 [E9, 5-(3-chloropropyl)-N-[4-fluoro-3-(trifluoromethyl)phenyl]-1-(2-methyl-4-pyridinyl)-1H-1,2,4-triazol-3-amine] | 182.8 °C | 437 nM | –
6 | Cc1cc(-n2nc(Nc3ccc(F)c(C(F)(F)F)c3)nc2CC(C)O)ccn1 (stereo not drawn) [E10, 3-[[4-Fluoro-3-(trifluoromethyl)phenyl]amino]-alpha-methyl-1-(2-methyl-4-pyridinyl)-, (alphaS)-1H-1,2,4-triazole-5-ethanol] | 192.7 °C | 1050 nM | 2
7 | COCCCc1nc(Nc2ccc(F)c(C(F)(F)F)c2)nn1-c1ccncc1Cl [E12, 1-(3-Chloro-4-pyridinyl)-N-[4-fluoro-3-(trifluoromethyl)phenyl]-5-(3-methoxypropyl)-1H-1,2,4-triazol-3-amine] | 105.3 °C | 2240 nM | –
8 | COCCc1nc(Nc2ccc(F)c(C(F)(F)F)c2)nn1-c1ccnc(C)c1 [E13] | 170.4 °C | 240 nM | 0
9 | OCCCc1nc(Nc2ccc(F)c(C(F)(F)F)c2)nn1-c1ccncc1Cl [E14] | 152.9 °C | 3980 nM | –
10 | COCCCc1nc(Nc2ccc(F)c(C(F)(F)F)c2)nn1-c1ccnc(C)c1 [E15] | 141.4 °C | 110 nM | 0
11 | C[C@H](O)Cc1nc(Nc2ccc(F)c(F)c2)nn1-c1cccc(F)c1 [E17] | 177.1 °C | 3550 nM | –
12 | C[C@H](O)Cc1nc(Nc2ccc(F)c(C(F)(F)F)c2)nn1-c1cccc(F)c1 [E18] | 161 °C | 3310 nM | –
13 | C[C@H](O)Cc1nc(Nc2ccc(F)c(C(F)(F)F)c2)nn1-c1ccc(F)cc1 [E20] | 170.4 °C | 4470 nM | –
14 | CNC(=O)Cc1nc(Nc2ccc(F)c(F)c2F)nn1-c1cc(C)nc(C)c1 [E209] | – | 724 nM | 2
15 | Cc1cc(-n2nc(Nc3cc(F)c(F)c(F)c3)nc2CCC(=O)N(C)C)cc(C)n1 [E264] | – | ~28.8 nM | –

Further lines, with some results ahead:

Row | melting point | Compound | EC50 [1] | Pam type [1]
16 | 181.4 °C | COc1ccc(-n2nc(Nc3ccc(F)c(F)c3)nc2C[C@H](C)O)cc1 [E21] | 1780 nM | 1
17 | 188.7 °C | COc1ccc(-n2nc(Nc3ccc(F)c(C(F)(F)F)c3)nc2C[C@H](C)O)cc1 [E22] | 851 nM | 0
18 | 185 °C | Cc1cc(-n2nc(Nc3cccc(Cl)c3)nc2C[C@H](C)O)ccn1 [E23] | 2190 nM | –
19 | 150.3 °C | C[C@H](O)Cc1nc(Nc2ccc(F)c(C(F)(F)F)c2)nn1-c1ccncc1Cl [E25] | 4790 nM | 2
20 | 158.1 °C | CC[C@H](O)Cc1nc(Nc2ccc(F)c(F)c2)nn1-c1cccc(F)c1 [E27] | 1910 nM | 1
21 | 157.3 °C | CC[C@H](O)Cc1nc(Nc2ccc(F)c(F)c2)nn1-c1ccc(F)cc1 [E28] | 1910 nM | 1
22 | 117.6 °C | CC[C@H](O)Cc1nc(Nc2ccc(F)c(F)c2)nn1-c1ccc(OC)cc1 [E29] | 1150 nM | 1
23 | 171.1 °C | CC[C@H](O)Cc1nc(Nc2ccc(F)c(F)c2)nn1-c1ccnc(C)c1 [E30] | 676 nM | 2
24 | 181.9 °C | Cc1cc(-n2nc(Nc3ccc(F)c(C(F)(F)F)c3)nc2C(C)CO)ccn1 (centres unmarked) [E31] | 2240 nM | 2
25 | 272.9 °C | CNC(=O)Cc1nc(Nc2ccc(F)c(C(F)(F)F)c2)nn1-c1ccnc(C)c1 [E35] | 1170 nM | 3
26 | 170.9 °C | CNC(=O)CCc1nc(Nc2ccc(F)c(C(F)(F)F)c2)nn1-c1cccc(OC)c1 [E42] | 2750 nM | –
27 | 153.7 °C | CNC(=O)CCc1nc(Nc2cccc(OC(F)(F)F)c2)nn1-c1ccnc(C)c1 [E54] | 2290 nM | 2
28 | 179.6 °C | CN(C)C(=O)CCc1nc(Nc2ccc(F)c(F)c2)nn1-c1ccccc1Cl [E57] | 1070 nM | 3
29 | 165.4 °C | CN(C)C(=O)CCc1nc(Nc2ccc(F)c(F)c2)nn1-c1cccc(Cl)c1 [E58] | 339 nM | –
30 | 145.1 °C | CN(C)C(=O)CCc1nc(Nc2ccc(F)c(F)c2)nn1-c1ccc(Cl)cc1 [E59] | 245 nM | 4
31 | 133.5 °C | COc1cccc(-n2nc(Nc3cccc(OC(F)(F)F)c3)nc2CCC(=O)N(C)C)c1 [E60] | 282 nM | 0
32 | 173.6 °C | COc1cccc(-n2nc(Nc3ccc(F)c(C(F)(F)F)c3)nc2CCC(=O)N(C)C)c1 [E61] | 85.1 nM | –
33 | 215.4 °C | Cc1cc(-n2nc(Nc3cccc(OC(F)(F)F)c3)nc2CCC(=O)N(C)C)ccn1 [E73] | 135 nM | 4
34 | 181.7 °C | CN(C)C(=O)CCc1nc(Nc2ccc(F)c(C(F)(F)F)c2)nn1-c1ccncc1Cl [E74] | 72.4 nM | 4
35 | 174.3 °C | Cc1ccc(-n2nc(Nc3cccc(OC(F)(F)F)c3)nc2CCC(=O)N(C)C)cn1 [E75] | 186 nM | 4
36 | 145.7 °C | CN(C)C(=O)CCc1nc(Nc2cccc(OC(F)(F)F)c2)nn1-c1cccnc1Cl [E76] | 407 nM | –
37 | 151.7 °C | Cc1ncccc1-n1nc(Nc2ccc3c(c2)OC(F)(F)O3)nc1CCC(=O)N(C)C [E116] | 2950 nM | –
38 | 244.4 °C | Cc1cc(-n2nc(Nc3cccc(C(F)(F)F)c3F)nc2CC(=O)NC2CC2)cc(C)n1 [E257, N-Cyclopropyl-1-(2,6-dimethyl-4-pyridinyl)-3-[[2-fluoro-3-(trifluoromethyl)phenyl]amino]-1H-1,2,4-triazole-5-acetamide] | – | –
